Results taken from article PMC5865651, “Novel inhibitor candidates of TRPV2 prevent damage of dystrophic myocytes and ameliorate against dilated cardiomyopathy in a hamster model” (Oncotarget, 2018).
Read-outs that look alike come from different tables or passages of the source.

Assays:
[1] = target: T1, hTRPC1 (Homo sapiens, UniProt P48995); experiment: Store-operated Ca2+ entry after thapsigargin in hTRPC1-transfected HEK293 cells; format: cell-based
T1 construct: expressed in transfected cells; host or cells: HEK293 cells
Description: Figure 4 Effects of inhibitor compounds on the Ca^2+ response of cells expressing hTRPV1, hTRPV2, or hTRPC1 (A) Effect of compounds on CaCl2 (5 mM)-induced peak fluorescence ratio in non-transfected (nt) or hTRPV2-transfected CHO cells. The extracellular Ca^2+-dependent increase in the ratio of fura-2 fluorescence intensity at 340/380 nm (ΔR, 2 min after addition of chemicals) was plotted as ΔR/R0 after normalising to the initial fluorescence ratio (R0). […] Solid bar, no inhibitor. (B) Effect of compounds on 2-APB (1 mM)/high extracellular CaCl2-induced peak fluorescence ratio in nt or hTRPV1-transfected HEK293 cells. […] (C) Effect of compounds on store-operated Ca^2+ entry in nt or hTRPC1-transfected HEK293 cells. Cells were treated with the endoplasmic reticulum Ca^2+ pump inhibitor thapsigargin and exposed to CaCl2 and the indicated compounds. ΔR was measured 2 min after the addition of CaCl2. […] Data are shown as mean ± SD (n = 5).
[Ca^2+]i was measured by a ratiometric fluorescence method as previously described. […] Fura-2-AM fluorescence was measured using an Aquacosmos fluorescence image processor (Hamamatsu Photonics, Hamamatsu, Japan). The time-course data are presented as the ratio of fluorescence at an excitation wavelength of 340 nm to that at 380 nm. The increase in the fluorescence ratio induced by the TRPV2 agonist 2-APB or high extracellular Ca^2+ (ΔR) was normalized to the initial ratio (R0) before stimulation. The fluorescence relative ratio (ΔR/R0) was plotted as the summary data in the fluorescence imaging analysis.

[2] = system: cardiomyopathic J2N-k hamsters; experiment: Cardiomyopathy in J2N-k hamsters in vivo (echocardiography, serum cTN-I, Masson's trichrome fibrosis); parameters: species or system hamster; conditions: 3 weeks
Description: Male δ-SG-deficient cardiomyopathic J2N-k and age-matched wild-type J2N-n hamsters (9 weeks old) were purchased from Japan SLC, Inc. (Shizuoka, Japan). Tranilast was ingested mixed with feed (300 mg/kg/day) as described previously, whereas other drugs (Figure 1) were administered orally in the drinking water at doses of 30 mg/kg (except lumin) per day for 3 weeks. In case of lumin, we first performed dose-dependent experiment at dose of 1,10 and100 mg/kg per day for 3 weeks, in order to determine the effective dose. […] After drug treatment, serum cardiac troponin (cTN)-I was measured and echocardiography analysis was performed. Histochemistry of cardiac muscles was performed as previously described. All animal experiments were performed according to the Guidelines for Animal Experimentation of the National Cerebral and Cardiovascular Center Research Institute.
Ventricles were fixed in phosphate-buffered saline containing 10% formalin and embedded in paraffin. Serial sections were cut at a thickness of 5 μm and stained with Masson's trichrome stain for morphological analysis. Sections were viewed under a BX41 light microscope (Olympus, Tokyo, Japan). Images were acquired with an FX380 digital camera (Olympus) and analysed using an FLVFS-LS imaging system (Flovel, Tokyo, Japan).
Fibrosis was assessed by measuring Masson's trichrome-positive areas. Briefly, colour images were converted to binary form by setting the threshold value so as to detect only blue-stained fibrotic areas, which were summed and reported as a percentage of the total.
Cardiac function was evaluated by echocardiography using a Sonos5500 ultrasound system (Hewlett-Packard, Palo Alto, CA, USA) with a 12-MHz transducer and M-mode imaging. The animals were sedated with tribromoethanol (350 mg/kg by intraperitoneal injection) during the process.
Creatine phosphokinase (CK) activity in the medium was determined using an in vitro colorimetric assay kit (CK Test Kit; Wako Pure Chemical Industries, Ltd., Osaka, Japan) according to the manufacturer's protocol The cTN-I level in the serum was measured, while quantitative immunoblotting and immunocytochemistry were performed as previously described. Protein concentration was measured using the bicinchoninic acid assay (Pierce Chemical Co., Rockford, IL, USA) with bovine serum albumin as the standard. All histochemical and physiological analyses were performed by investigators blinded to the drug treatments. Unless otherwise stated, results are presented as the mean ± SD of at least 5 determinations. The unpaired Student's t-test and one-way ANOVA followed by Dunnett's test were used to analyse the data. Values of P < 0.05 (indicated as asterisks in the figures) were considered statistically significant. All cellular measurements were repeated at least 5 times. Representative data are shown.

[3] = 30 mg/kg per day orally in drinking water
[4] = hTRPC1-transfected HEK293 cells, thapsigargin, compound 15 μM

T1 sequence (P48995 whole entry): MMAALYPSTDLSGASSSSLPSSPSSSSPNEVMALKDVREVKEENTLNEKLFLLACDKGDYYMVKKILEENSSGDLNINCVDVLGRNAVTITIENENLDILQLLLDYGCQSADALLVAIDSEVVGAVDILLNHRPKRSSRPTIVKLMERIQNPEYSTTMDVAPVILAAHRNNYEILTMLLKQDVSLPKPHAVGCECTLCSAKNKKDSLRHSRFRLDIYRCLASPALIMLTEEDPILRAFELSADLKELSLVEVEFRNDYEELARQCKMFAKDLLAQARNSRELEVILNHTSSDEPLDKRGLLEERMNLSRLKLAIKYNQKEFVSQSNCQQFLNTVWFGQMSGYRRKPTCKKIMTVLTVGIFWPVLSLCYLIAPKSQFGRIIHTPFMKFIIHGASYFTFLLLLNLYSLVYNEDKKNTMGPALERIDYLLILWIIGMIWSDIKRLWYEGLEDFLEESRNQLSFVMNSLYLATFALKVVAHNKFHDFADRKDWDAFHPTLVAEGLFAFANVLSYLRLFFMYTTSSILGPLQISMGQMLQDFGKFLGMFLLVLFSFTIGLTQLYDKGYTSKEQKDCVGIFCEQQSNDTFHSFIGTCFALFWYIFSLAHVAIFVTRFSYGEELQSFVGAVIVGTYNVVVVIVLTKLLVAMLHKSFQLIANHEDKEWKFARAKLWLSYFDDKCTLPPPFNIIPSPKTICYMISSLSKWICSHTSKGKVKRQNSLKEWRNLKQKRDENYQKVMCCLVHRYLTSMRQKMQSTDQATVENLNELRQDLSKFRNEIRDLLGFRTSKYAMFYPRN

NCCOB(c1ccccc1)c1ccccc1 [2-APB, 2-aminoethoxydiphenylborate]
effect on store-operated increase in [Ca2+]i [1]: inhibited

COc1cc(/C=C(\C#N)C(=O)Nc2ccccc2C(=O)O)cc(Cl)c1OC [A3, 2-[(2E)-3-(3-Chloro-4,5-dimethoxyphenyl)-2-cyanoprop-2-enoylamino]benzoic acid]
effect on fibrosis (Masson's trichrome) [2, 3]: prevented fibrosis
effect on fractional shortening (FS) [2, 3]: prevented
effect on left ventricular end-diastolic dimension (LVDd) [2, 3]: small effect
effect on left ventricular end-systolic dimension (LVDs) [2, 3]: prevented the increase
effect on serum level of cTN-I [2, 3]: reduced
effect on store-operated increase in [Ca2+]i [1, 4]: neither A3, A48, A63, nor B6 had any effect

COc1cccc(OCCn2cc(/C=N/n3cnnc3)c3ccccc32)c1 [B6, 1-{2-[3-((1E)-2-(1,2,4-triazol-4-yl)-2-azavinyl)indolyl]ethoxy}-3-methoxybenzene]
effect on fractional shortening (FS) [2, 3]: prevented
effect on left ventricular end-diastolic dimension (LVDd) [2, 3]: small effect
effect on left ventricular end-systolic dimension (LVDs) [2, 3]: prevented the increase
effect on serum level of cTN-I [2, 3]: reduced
effect on store-operated increase in [Ca2+]i [1, 4]: neither A3, A48, A63, nor B6 had any effect

CCN1C=CC(=CC=C(C=Cc2cc[n+](CC)c3ccccc23)c2cc[n+](CC)c3ccccc23)c2ccccc21.[I-].[I-] [lumin, 4,4′-[3-[2-[1-ethyl-4(1H)-quinolinylidene]ethylidene]-1-propene-1,3-diyl]bis(1-ethylquinolinium) diiodide]
effect on cardiac dysfunction (increased LVDs, reduced ejection fraction, decreased fractional shortening) ([2]; 10 mg/kg per day orally): prevented
effect on fibrotic area ([2]; 10 mg/kg per day orally): reduced
effect on the decrease in wall thickness ([2]; 10 mg/kg per day orally): partially prevented
increase in [Ca2+]i via TRPC1 ([1]; unpublished observation, concentration not given): did not affect
